Data set [1] deals with T1, BCL-2 (Homo sapiens, UniProt P10415).
T1 construct: purchased Cisbio 63ADK000CB01PEG
Briefly: HTRF BCL-2/BAK assay (Cisbio). The settings on record: recombinant human Tag1-BCL-2 2 nM, Tag2-BAK 10 nM. Format: binding. Here is the method: (§1) Then the pre-mixed anti-Tag1-Eu^3+ and anti-tag2-XL665 were added to the plate and further incubated at room temperature for another 2 hours. The signals ([…]) were read on Envision 2104 instrument. The IC50 for each compound was derived from fitting the signal of 665/615 nM to the increasing compound concentration.
(§2) Using the above assays, the following compounds were tested.
Background: Time-resolved FRET reads energy transfer from a long-lived donor to a nearby acceptor.

For data set [2], the target named is T2, BCL-XL (Homo sapiens, UniProt Q07817).
T2 construct: purchased Cisbio 63ADK000CB04PEG
Briefly: HTRF BCL-XL/BAK assay (Cisbio). Format: binding. The settings on record: recombinant human Tag1-BCL-XL 2 nM, Tag2-BAK 5 nM. Here is the method: as §1, §2

Data set [3] has as its target T3, CYP2C9 (Homo sapiens, UniProt P11712).
T3 construct: from tissue; host or cells: human liver microsomes
In words: CYP2C9 activity assay in human liver microsomes, substrate diclofenac. To be noted: probe diclofenac, test compound 1 μM, 37° C. 10 min, read-out: Inhibition rate (%) against CYP2C9 Enzyme. Format: in vitro ADME. The protocol:
In this assay, several exemplary compounds of the present disclosure and a control compound (Venetoclax) were used as the test compounds. In general, the assay was conducted by the following steps: • 1. The solution of test compound, human liver microsomes solution, and substrate (diclofenac) solution were mixed in a 96-well assay plate on ice to, and the final concentration of each test compound is 1 μM; • 2. The 96-well assay plate and NADPH solution were pre-incubated at 37° C. for 5 minutes; • 3. NADPH solution was added to into the assay plates to initiate the reaction; • 4. The assay plate was incubated at 37° C. for 10 min; • 5. The reaction was stopped; and after quenching, a portion of the supernatant was taken from each well for LC/MS analysis; • 6. The inhibition rate was calculated by the following equation: Inhibition rate (%)=(1−Valuetest/Valuecontrol)×100%, where Valuetest refers to the LC/MS data obtained from wells with test compounds and Valuecontrol refers to the LC/MS data obtained from wells without test compound.
(Microsomes from liver hold many membrane-bound enzymes, among them those of drug oxidation.)

Data set [4] concerns DOHH2 cells. In words: CellTiter-Glo cell proliferation assay, DOHH2 cells. It is filed as cell-based. To be noted: Homo sapiens, DOHH-2, 72 hours. In outline: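 GI50 derived from CellTiter-Glo luminescent viability signal. Cells grown in DMEM with 10% FBS received a compound dilution series for 72 h (37 °C, 5% CO2).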

SMILES strings stand for the structures.

T2 sequence (Q07817 whole entry): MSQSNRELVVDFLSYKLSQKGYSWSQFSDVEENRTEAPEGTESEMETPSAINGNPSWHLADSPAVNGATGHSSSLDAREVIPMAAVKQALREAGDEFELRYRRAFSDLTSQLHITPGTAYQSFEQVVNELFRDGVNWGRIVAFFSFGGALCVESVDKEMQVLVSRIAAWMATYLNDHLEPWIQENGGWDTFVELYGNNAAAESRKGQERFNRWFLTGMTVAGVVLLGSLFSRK
T3 sequence (P11712 whole entry): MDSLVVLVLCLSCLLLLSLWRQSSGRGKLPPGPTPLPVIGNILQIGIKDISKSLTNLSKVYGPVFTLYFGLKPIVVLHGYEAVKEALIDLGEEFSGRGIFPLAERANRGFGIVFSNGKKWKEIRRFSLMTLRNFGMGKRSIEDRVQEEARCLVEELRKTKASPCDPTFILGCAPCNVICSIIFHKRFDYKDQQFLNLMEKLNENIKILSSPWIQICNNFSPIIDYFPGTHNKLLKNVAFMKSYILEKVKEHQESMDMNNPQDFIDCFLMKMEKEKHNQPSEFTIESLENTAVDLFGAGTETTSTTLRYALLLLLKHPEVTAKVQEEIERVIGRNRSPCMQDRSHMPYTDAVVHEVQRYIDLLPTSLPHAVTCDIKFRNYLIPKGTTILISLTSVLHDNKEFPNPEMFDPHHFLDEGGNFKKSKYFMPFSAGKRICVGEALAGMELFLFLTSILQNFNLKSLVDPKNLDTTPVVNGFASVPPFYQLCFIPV
T1 sequence (P10415 whole entry): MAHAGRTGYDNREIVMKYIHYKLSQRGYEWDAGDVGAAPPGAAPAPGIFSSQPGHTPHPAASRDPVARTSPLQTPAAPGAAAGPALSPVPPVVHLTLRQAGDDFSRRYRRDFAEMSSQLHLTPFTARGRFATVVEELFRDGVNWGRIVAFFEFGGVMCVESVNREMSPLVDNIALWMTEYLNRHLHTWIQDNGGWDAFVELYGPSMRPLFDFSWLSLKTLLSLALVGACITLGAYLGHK

For orientation: IC50 means the concentration at which inhibition is half-maximal. A word on the inhibition: it is how much of the control response was suppressed. By GI50 is commonly meant the concentration giving 50% growth inhibition. Low values mean more potent growth inhibition, high ones less potent growth inhibition. As for `O=C(NS(=O)(=O)c1ccc(NCC2CC3(CCN(CC(F)(F)F)CC3)C2)c([N+](=O)[O-])c1)c1ccc(N2CCN([C@@H]3CCCCc4c(Cl)cccc43)CC2)cc1Oc1cnc2[nH]ccc2c1` [Compound 115, (R)-2-((1H-pyrrolo[2,3-b]pyridin-5-yl)oxy)-4-(4-(1-chloro-6,7,8,9-tetrahydro-5H-benzo[7]annulen-5-yl)piperazin-1-yl)-N-((3-nitro-4-(((7-(2,2,2-trifluoroethyl)-7-azaspiro[3.5]nonan-2-yl)methyl)amino)phenyl)sulfonyl)benzamide], the IC50 was less than 20 nM in data set [1] and 200 to 2000 nM in data set [2]. In addition, in data set [3], the inhibition at 10 min, 1 µM was less than 30%. In data set [4], this molecule displayed a GI50 of 50 to 500 nM.
Regarding `CC1(C)CCC(CN2CCN(c3ccc(C(=O)NS(=O)(=O)c4ccc(NCC5CCOCC5)c([N+](=O)[O-])c4)c(Oc4cnc5[nH]ccc5c4)c3)CC2)=C(c2ccc(Cl)cc2)C1` [Venetoclax, reference compound], the inhibition at 10 min, 1 µM in data set [3] is 49%.
As to `O=C(NS(=O)(=O)c1ccc(NCC2CCOCC2)c([N+](=O)[O-])c1)c1ccc(N2CCC3(CC2)CN(C2CCCc4ccccc42)C3)cc1Oc1cnc2[nH]ccc2c1` (stereo not drawn) [Compound 94, 2-((1H-pyrrolo[2,3-b]pyridin-5-yl)oxy)-N-((3-nitro-4-(((tetrahydro-2H-pyran-4-yl)methyl)amino)phenyl)sulfonyl)-4-(2-(1,2,3,4-tetrahydronaphthalen-1-yl)-2,7-diazaspiro[3.5]nonan-7-yl)benzamide], the IC50 in data set [1] is less than 20 nM. Besides, in data set [3], the inhibition at 10 min, 1 µM is less than 30%. The same molecule showed a GI50 in data set [4] of 500 to 5000 nM.
As to `CC(C)(C)OC(=O)N1CCC2(CC1)CC(CNc1ccc(S(=O)(=O)NC(=O)c3ccc(N4CCN([C@@H]5CCCCc6c(Cl)cccc65)CC4)cc3Oc3cnc4[nH]ccc4c3)cc1[N+](=O)[O-])C2` [Compound 100, tert-butyl (R)-2-(((4-(N-(2-((1H-pyrrolo[2,3-b]pyridin-5-yl)oxy)-4-(4-(1-chloro-6,7,8,9-tetrahydro-5H-benzo[7]annulen-5-yl)piperazin-1-yl)benzoyl)sulfamoyl)-2-nitrophenyl)amino)methyl)-7-azaspiro[3.5]nonane-7-carboxylate], the IC50 in data set [1] is less than 20 nM; in data set [2], 200 to 2000 nM. Further, the inhibition at 10 min, 1 µM in data set [3] is less than 30%. The molecule also registered a GI50 in data set [4] of 50 to 500 nM.
With `CC(=O)NCCN1CCC2(CC1)CC(CNc1ccc(S(=O)(=O)NC(=O)c3ccc(N4CCN([C@@H]5CCCCc6c(Cl)cccc65)CC4)cc3Oc3cnc4[nH]ccc4c3)cc1[N+](=O)[O-])C2` [Compound 112, (R)-2-((1H-pyrrolo[2,3-b]pyridin-5-yl)oxy)-N-((4-(((7-(2-acetamidoethyl)-7-azaspiro[3.5]nonan-2-yl)methyl)amino)-3-nitrophenyl)sulfonyl)-4-(4-(1-chloro-6,7,8,9-tetrahydro-5H-benzo[7]annulen-5-yl)piperazin-1-yl)benzamide], the IC50 in data set [1] and in data set [2] was less than 20 nM each time. In addition, in data set [3], the inhibition at 10 min, 1 µM was found to be 33%. In data set [4], this molecule had a concentration for 50% growth inhibition (GI50) of less than 50 nM.
`CN1CCC2(CC1)CC(CNc1ccc(S(=O)(=O)NC(=O)c3ccc(N4CCN([C@@H]5CCCCc6c(Cl)cccc65)CC4)cc3Oc3cnc4[nH]ccc4c3)cc1[N+](=O)[O-])C2` [Compound 108, (R)-2-((1H-pyrrolo[2,3-b]pyridin-5-yl)oxy)-4-(4-(1-chloro-6,7,8,9-tetrahydro-5H-benzo[7]annulen-5-yl)piperazin-1-yl)-N-((4-(((7-methyl-7-azaspiro[3.5]nonan-2-yl)methyl)amino)-3-nitrophenyl)sulfonyl)benzamide]: the IC50 in data set [1] and in data set [2] was less than 20 nM throughout. The inhibition at 10 min, 1 µM in data set [3] is less than 30%. Besides, the GI50 in data set [4] is less than 50 nM.
`CS(=O)(=O)N1CCC2(CC1)CC(CNc1ccc(S(=O)(=O)NC(=O)c3ccc(N4CCN([C@@H]5CCCCc6c(Cl)cccc65)CC4)cc3Oc3cnc4[nH]ccc4c3)cc1[N+](=O)[O-])C2` [Compound 107, (R)-2-((1H-pyrrolo[2,3-b]pyridin-5-yl)oxy)-4-(4-(1-chloro-6,7,8,9-tetrahydro-5H-benzo[7]annulen-5-yl)piperazin-1-yl)-N-((4-(((7-(methylsulfonyl)-7-azaspiro[3.5]nonan-2-yl)methyl)amino)-3-nitrophenyl)sulfonyl)benzamide]: the figures for the IC50 in data set [1] and in data set [2] were less than 20 nM and 20 to 200 nM, respectively. In addition, the inhibition at 10 min, 1 µM in data set [3] is 31%. Further, the GI50 in data set [4] was less than 50 nM.
For the molecule `O=C(NS(=O)(=O)c1ccc(NCC2COC3OCCC23)c([N+](=O)[O-])c1)c1ccc(N2CCN(C3CCCCc4c(Cl)cccc43)CC2)cc1Oc1cnc2[nH]ccc2c1` (stereo not drawn) [Compound 64, 2-((1H-pyrrolo[2,3-b]pyridin-5-yl)oxy)-4-(4-(1-chloro-6,7,8,9-tetrahydro-5H-benzo[7]annulen-5-yl)piperazin-1-yl)-N-((4-(((hexahydrofuro[2,3-b]furan-3-yl)methyl)amino)-3-nitrophenyl)sulfonyl)benzamide], the IC50 in data set [1] is less than 20 nM; in data set [2], 20 to 200 nM. This molecule gave a GI50 in data set [4] of 50 to 500 nM.
As for `CC(=O)Nc1ccc2c(c1)C(N1CCN(c3ccc(C(=O)NS(=O)(=O)c4ccc(NCC5CCOCC5)c([N+](=O)[O-])c4)c(Oc4cnc5[nH]ccc5c4)c3)CC1)CCCC2` (stereo not drawn) [Compound 34, 2-((1H-pyrrolo[2,3-b]pyridin-5-yl)oxy)-4-(4-(3-acetamido-6,7,8,9-tetrahydro-5H-benzo[7]annulen-5-yl)piperazin-1-yl)-N-((3-nitro-4-(((tetrahydro-2H-pyran-4-yl)methyl)amino)phenyl)sulfonyl)benzamide], the IC50 in data set [1] was less than 20 nM; in data set [2], 200 to 2000 nM. This molecule also registered a GI50 in data set [4] of 500 to 5000 nM.
As for `CS(=O)(=O)Nc1cccc2c1CCCCC2N1CCN(c2ccc(C(=O)NS(=O)(=O)c3ccc(NCC4CCOCC4)c([N+](=O)[O-])c3)c(Oc3cnc4[nH]ccc4c3)c2)CC1` (stereo not drawn) [Compound 56, 2-((1H-pyrrolo[2,3-b]pyridin-5-yl)oxy)-4-(4-(1-(methylsulfonamido)-6,7,8,9-tetrahydro-5H-benzo[7]annulen-5-yl)piperazin-1-yl)-N-((3-nitro-4-(((tetrahydro-2H-pyran-4-yl)methyl)amino)phenyl)sulfonyl)benzamide], the values for the IC50 in data set [1] and in data set [2] were 20 to 200 nM and greater than 2000 nM, respectively. The molecule further came in with a GI50 in data set [4] greater than 5000 nM.
`O=C(NS(=O)(=O)c1ccc(NCC2CCOCC2)c([N+](=O)[O-])c1)c1ccc(N2CCN([C@@H]3CCCCc4c(O)cccc43)CC2)cc1Oc1cnc2[nH]ccc2c1` [Compound 40, (R)-2-((1H-pyrrolo[2,3-b]pyridin-5-yl)oxy)-4-(4-(1-hydroxy-6,7,8,9-tetrahydro-5H-benzo[7]annulen-5-yl)piperazin-1-yl)-N-((3-nitro-4-(((tetrahydro-2H-pyran-4-yl)methyl)amino)phenyl)sulfonyl)benzamide]: the 50% inhibitory concentration (IC50) in data set [1] was 20 to 200 nM; in data set [2], greater than 2000 nM. The GI50 in data set [4] was 500 to 5000 nM.
For `C=C(C)c1cccc2c1CCCCC2N1CCN(c2ccc(C(=O)NS(=O)(=O)c3ccc(NCC4CCOCC4)c([N+](=O)[O-])c3)c(Oc3cnc4[nH]ccc4c3)c2)CC1` (stereo not drawn) [Compound 50, 2-((1H-pyrrolo[2,3-b]pyridin-5-yl)oxy)-N-((3-nitro-4-(((tetrahydro-2H-pyran-4-yl)methyl)amino)phenyl)sulfonyl)-4-(4-(1-(prop-1-en-2-yl)-6,7,8,9-tetrahydro-5H-benzo[7]annulen-5-yl)piperazin-1-yl)benzamide], in that order: less than 20 nM, 200 to 2000 nM and 50 to 500 nM.

For the origin of these results see US20240239792A1, “MODULATORS OF BCL-2 OR BCL-2/BCL-XL AND USES THEREOF” (APPICINE THERAPEUTICS (HK) LIMITED, priority 2021, published 2024).
